Reference: patent US20230242540A1, “COMPOUNDS HAVING ANTICANCER ACTIVITY” (The Trustees of Princeton University, priority 2020, published 2023)

Tests used:
[1] = test system: HCT116 cell line; experiment: Cell growth inhibition by resazurin, HCT116; type: cell-based; conditions: HCT116, 4 days, with or without hypoxanthine and thymidine supplement, FIG. 1A
Description: (§1) Cells of (a) HCT116 and (b) Panc1 cell lines were each seeded in 96-well plates at the density of 3000/well in 80 μL of DMEM media supplemented with 10 vol % dialyzed FBS. The next day, 10 μL of media with or without hypoxanthine (1 mM) and thymidine (160 μM) was added to each well. 10 μL of Compound 1 diluted in media as 10× stock of desired concentration was also added. Relative cell number is measured by resazurin right before and 4 days after the addition of Compound 1. Namely, resazurin dissolved in phosphate-buffered saline (PBS) was added to each well to a final concentration of 10 μg/mL followed by 1-hour incubation at 37° C. Fluorescence (excitation 550 nm, emission 590 nm) is then measured by a microplate reader. […] Inhibition of growth in both cancer cell lines was achieved via disruption of purine and thymine synthesis.

[2] = test system: HCT116 colorectal carcinoma xenograft; experiment: HCT116 colorectal carcinoma xenograft; type: in vivo, female  mice; conditions: 5 mg/kg intraperitoneally once daily
[3] = test system: isogenic CHO cell line with low RFC expression; experiment: Folate competition, IC50 in CHO cells with low RFC expression; type: cell-based; conditions: Cricetulus griseus, folic acid free RPMI, 10 vol. % dialyzed FBS, 25 nM 5-formyl THF
Description: (§2) Compound 1 was tested relative to pemetrexed and methotrexate against two isogenic CHO cell lines with low and high RFC expression levels. […] Table II provides the IC50 values for Compound 1, Pemetrexed and Methotrexate.

[4] = test system: Panc1 cell line; experiment: Cell growth inhibition by resazurin, Panc1; type: cell-based; conditions: Panc1, 4 days, with or without hypoxanthine and thymidine supplement, FIG. 1B
Description: as §1

[5] = test system: KPC pancreatic ductal adenocarcinoma allograft; experiment: KPC pancreatic ductal adenocarcinoma allograft; type: in vivo, male C57BL/6 mice; conditions: 5 mg/kg intraperitoneally once daily
Description: Tumor harvested from K-ras^LSL.G12D/+; Trp53^R172H/+; Pdx-1-Cre (KPC) mice was passaged at the flank of C57BL/6 subcutaneously. To initiate allografts, subcutaneous tumors were harvested and minced in DMEM media, mixed with equal volume of Matrigel basement membrane matrix (Corning 354234), and injected subcutaneously at the flank of male C57BL/6 mice. Tumors were measured twice per week. Once the average tumor volume reaches 100 mm^3, Compound 1 (5 mg/kg body weight, dissolved in 10% 2-hydroxypropyl-β-cyclodextrin) and vehicle (10% 2-hydroxypropyl-β-cyclodextrin, 10 mL/kg body weight) were injected intraperitoneally once daily, with continued tumor monitoring. At the end of experiment, mice were euthanized by cervical dislocation after being fasted for 6 hr. Tumors are collected into aluminum foil, clamped by a Wollenberg clamp pre-cooled in liquid N2, and kept cold in liquid N2.
To extract metabolites from tumor samples, tumors were first ground by a Cryomill (Retsch). About 10 mg of ground tissue is measured and extracted by extraction buffer (acetonitrile:methanol:H2O=2:2:1, then supplemented with 0.5 vol % formic acid) at the ratio of 370 μL buffer per 10 mg tissue. […] Metabolite levels were measured by Q Exactive Plus Hybrid Quadrupole-Orbitrap coupled with […] (HILIC) operating in the negative ionization mode.

[6] = test system: isogenic CHO cell line with high RFC expression; experiment: Folate competition, IC50 in CHO cells with high RFC expression; type: cell-based; conditions: Cricetulus griseus, folic acid free RPMI, 10 vol. % dialyzed FBS, 25 nM 5-formyl THF
Description: as §2

[7] = test system: MC38 mouse colon adenocarcinoma allograft; experiment: MC38 mouse colon adenocarcinoma allograft; type: in vivo, female C57BL/6 mice; conditions: 5 mg/kg intraperitoneally once daily, FIG. 5A
Description: To initiate allografts, 2×10^6 MC38 cells were injected subcutaneously at the flank of female C57BL/6 mice. Once the average tumor volume reaches 50 mm^3, IRS-17 (5 mg/kg body weight, dissolved in 10% 2-hydroxypropyl-β-cyclodextrin) and vehicle (10% 2-hydroxypropyl-β-cyclodextrin, 10 mL/kg body weight) are injected intraperitoneally once daily. After the final dose, mice were fasted for 12 hr. Then blood was collected by tail snip into a tube without anticoagulants. Serum was collected by taking the supernatant after centrifugation. Mice were then euthanized by cervical dislocation, and tumors are harvested and frozen in liquid N2. Tumor metabolites were extracted and measured as previously described in C. To extract serum metabolites, 2.5 μL of serum was added into 80 μL of methanol. Samples were centrifuged (16000 g for 10 min) at 4° C., and supernatant is collected.

SMILES	cell growth [1]	change in tumor volume over time ([2]; FIG. 4A)	tumor doubling time ([2]; FIG. 4B)	IC50 [3] [nM]	cell growth [4]	change in tumor volume over time ([5]; FIG. 3A)	tumor doubling time ([5]; FIG. 3B)	IC50 [6] [nM]	tumor volume over the treatment period [7]
C#Cc1ccc(Cn2ccc3c4c(N)nc(N)nc4ccc32)cc1 [Compound 1]	inhibited cell growth	substantially inhibited tumor growth	protracted tumor doubling time	< 0.002	inhibited cell growth	substantially inhibited tumor growth	protracted tumor doubling time	0.06	some reduction in tumor volume
CN(Cc1cnc2nc(N)nc(N)c2n1)c1ccc(C(=O)N[C@@H](CCC(=O)O)C(=O)O)cc1 [Methotrexate]				4000				480	
Nc1nc2[nH]cc(CCc3ccc(C(=O)N[C@@H](CCC(=O)O)C(=O)O)cc3)c2c(=O)[nH]1 [Pemetrexed]				800				150	
